Assay in all cases: DTP human tumour cell line panel, 48 h
For test [1], the system named is SNB-19 CNS.
Test [2] relates to A498 renal.
The test system of test [3] is CAKI-1 renal.
For test [4], the system named is EKVX NSCLC.
The test system of test [5] is HCT-15 colon.
In test [6] the test system is MALME-3M melanoma.
Test [7] relates to SF-268 CNS.
In test [8] the test system is COLO 205 colon.
In test [9] the test system is HL-60(TB) leukemia.
The test system of test [10] is MCF7 breast.

The structures appear in SMILES notation.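 48-hour exposure; five concentrations; linearly interpolated endpoints. The concentration for 50% growth inhibition is given as GI50. TGI denotes the concentration required for complete inhibition of growth.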

For the compound `COc1c/c(=C2\C=c3ccccc3=N2)[nH]/c1=C\c1[nH]c(C)cc1C`, the GI50 (usually the concentration at which growth is held to half of that of the control) in test [1] is 2.99 µM; in test [2], 0.242 µM; in [3] it was less than 0.0103 µM; in [4] it was 0.601 µM; in test [5], less than 0.0225 µM; in test [6], 0.0328 µM. Besides, the concentration for 50% growth inhibition (GI50) in test [7] is 0.0631 µM; in test [8] it was 0.0155 µM; in [9] it was less than 0.0167 µM; in [10] it was 0.0464 µM. Besides, the TGI (in general, the concentration giving total growth inhibition) was greater than 88.7 µM in [1]; 7.47 µM in [2]; 0.109 µM in [3]; greater than 94.4 µM in test [4]; 4.33 µM in [5]; 37.7 µM in [7]. Besides, the TGI in [8] was 13.6 µM; in [9], 12.8 µM; in test [10], greater than 100 µM.
Turning to `O=c1c2c(nc3n1CCS3)[nH]c1cc([N+](=O)[O-])ccc12`, the GI50 in [1], in test [2], in test [3], in [4], in test [5] and in [6] was greater than 100 µM throughout. The GI50 in test [7] is greater than 100 µM; in test [8] it was 41.4 µM; in test [9], 20.1 µM; in test [10], 7.57 µM. The TGI in [1], in test [2], in test [3], in test [4], in test [5] and in [6] was greater than 100 µM throughout. Further, the TGI is greater than 100 µM in test [7], greater than 100 µM in test [8], greater than 100 µM in test [9] and 30.9 µM in [10].
As for `CN[C@H]1CN(c2ccc3c(=O)c(C(=O)O)cn(-c4nccs4)c3n2)C[C@@H]1OC`, the GI50 in test [1] was 0.376 µM; in test [2] it was 0.273 µM; in test [3], 0.271 µM; in test [4], 1.97 µM; in test [5], 1.13 µM; in test [6], 0.516 µM. The GI50 is 0.706 µM in [7], 1.21 µM in test [8], 0.292 µM in test [9] and 0.358 µM in test [10]. The TGI in test [1] was found to be 14.2 µM; in test [2], 2.01 µM; in test [3], 2.24 µM; in test [4], 7.17 µM; in test [5] it was 7.72 µM; in [6] it was 2.27 µM. Besides, the TGI in test [7] is 6.49 µM; in test [8], 2.66 µM; in test [9], 2.07 µM; in test [10], 5.07 µM.
For `O=C(O)CCNCC(=O)O`, the TGI in test [1], in test [2], in test [3], in test [4], in test [5] and in test [6] was greater than 100 µM in each case. Further, the TGI in test [7], in test [8], in test [9] and in [10] was greater than 100 µM in each case.
As to `Oc1c(Cl)cc(Cl)c(Cl)c1CNCCNCc1c(O)c(Cl)cc(Cl)c1Cl`, the GI50 is 1.49 µM in test [1]; 3.03 µM in test [2]; 1.09 µM in test [3]; 1.32 µM in test [4]; 0.282 µM in test [5]; 1.11 µM in [6]. For the same compound, the GI50 in [7] is 0.997 µM; in test [8], 1.09 µM; in [9], 0.63 µM; in test [10], 1.12 µM. Besides, the concentration for total growth inhibition (TGI) in test [1] was found to be 11.3 µM; in test [2], 17.3 µM; in test [3], 9.23 µM; in test [4] it was 10.2 µM; in [5], 11.6 µM; in [6], 9.67 µM. Also, the TGI in test [7] is 12.1 µM; in test [8] it was greater than 50 µM; in test [9], 2.84 µM; in test [10], 14.5 µM.
On to `Cc1cnc2n1S(=O)(=O)c1cc(C(=O)Nc3cccc4nsnc34)c(Cl)cc1S2`, for which the GI50 in test [1] is 27.2 µM; in test [2], 13.8 µM; in test [3], 16.8 µM; in test [4] it was 46.8 µM; in test [5], 38.1 µM; in [6], 13.9 µM. Further, the GI50 in test [7] was 22.5 µM; in test [8], 23 µM; in test [9] it was 24.7 µM; in test [10], 16.4 µM. In addition, the TGI is 60.8 µM in test [1]; 34.8 µM in [2]; 30.9 µM in test [3]; greater than 100 µM in test [4]; greater than 100 µM in test [5]; 40.9 µM in [6]. In addition, the total growth inhibition concentration (TGI) in test [7] was 55.6 µM; in test [8] it was 54.6 µM; in test [9] it was greater than 100 µM; in test [10], 32.2 µM.
On to `CCc1ccc(Oc2c(-c3ccc(OCc4ccc(Cl)cc4)cc3O)n[nH]c2C(F)(F)F)cc1`, for which the GI50 was 1.98 µM in test [1]; 1.87 µM in [2]; 2.29 µM in test [3]; 1.89 µM in [4]; 1.6 µM in test [5]; 1.78 µM in test [6]. The GI50 is 1.74 µM in test [7], 1.71 µM in [8], 2.41 µM in test [9] and 2 µM in test [10]. Further, the TGI in [1] stood at 4.21 µM; in test [2], 3.82 µM; in [3] it was 5.95 µM; in test [4] it was 4.34 µM; in test [5], 3.21 µM; in [6], 3.47 µM. Moreover, the TGI in [7] worked out at 3.39 µM; in test [8] it was 3.27 µM; in [9], 4.86 µM; in test [10], 5.65 µM.

(Values after PubChem BioAssay (NCI).)
